Measurements from patent US20140135526A1, “COMPOSITIONS AND METHODS FOR 3-HYDROXYPROPIONATE BIO-PRODUCTION FROM BIOMASS” (OPX Biotechnologies, Inc., priority 2007, published 2014).

Key:
E. coli = experiment: Alleviation of 3-HP toxicity by adding downstream products of the chorismate superpathway; format: cell-based; conditions: added as supplement in the presence of 3-HP
Excerpt: The data shown in FIG. 4 depict identification of the chorismate superpathway as a target of 3-HP toxicity. In some embodiments, toxicity is alleviated by several processes.

wild type E. coli K12 = experiment: 3-HP toxicity (growth inhibition) in E. coli; format: cell-based
Excerpt: Previous attempts to produce 3-HP via biological pathways provide product titers which have been low and these processes have required the use of expensive, rich media. Both of these factors limit commercial feasibility and profitability. The use of rich media was necessary due to the toxicity of 3-HP when fermented with the more economical minimal media. […] Further, the fermentative pathways reported by other investigators have not addressed and resolved the toxicity mechanisms of 3-HP to the host organisms. Further to issues related to commodity chemical production, which largely relies on petroleum-based starting materials, there is an increasing need to reduce the domestic usage of petroleum and natural gas. The numerous motivating factors for this increasing need include, but are not limited to: pollutant reduction (such as greenhouse gases), environmental protection, and reducing the dependence on foreign oil. These issues not only impact fuel markets, but also the markets of numerous other products that are currently derived from oil. Biorefining promises the development of efficient biological processes allowing for the conversion of renewable sources of carbon and energy into large volume commodity chemicals.
FIG. 2 depicts 3-hydroxpropionate toxicity in E. coli K12. The minimum concentration of 3-HP that is required to inhibit visible growth after 24 hrs in minimal media is shown for wild type E. coli K12 grown in both minimal media and rich media which contains more complex nutrients.
Severe growth inhibition has been observed for extracellular 3-HP levels as low as 10 g/L in minimal media (pH 7.0), which limits the economic feasibility of 3-HP production as a platform chemical. […] However toxicity at levels below required titers (100 g/L) are still observed in rich media.

[1] = test system: AB354 (ΔpanD) + pKK223-kgd; format: cell-based, E. coli; conditions: M9 minimal media plates with threonine, leucine, thiamine; 37 C overnight; 10 g/L beta-alanine, 1 mM IPTG, 0.2 g/L putrescine, 200 mg/L ampicillin where indicated
Experimental: (§1) E. coli AB354 (Δ panD) was transformed with the vector controls, pKK223, pKK223-Cterm-5×his (‘5×His’ disclosed as SEQ ID NO: 24), as well as the test vectors pKK223-mcr and pKK223-Cterm-5×His-kgd (‘5×His’ disclosed as SEQ ID NO: 24), according to standard methods described below. Each of the strains were grown overnight in LB rich media supplemented with 200 mg/L ampicillin (according to standard protocols). Following overnight growth, cells twice were harvested by centrifugation and washed by resuspension in M9 minimal media (standard protocol), diluted 1:10,000 and plated on M9 minimal media plates with 0.05 g/L threonine, 0.1 g/L leucine, 0.067 g/L thiamine, with the additional appropriate supplements, where indicated at the following concentrations (10 g/L beta-alanine (Sigma Aldrich, St. Louis, Mo.), 1 mM Isopropyl β-D-1-thiogalactopyranoside (Thermo Fisher Scientific, Fairlawn, N.J.), 0.2 g/L putrescine (MPBiomedicals, Santa Ana, Calif.), 200 mg/L ampicillin (Research Products International Corp., Mt. Prospect, Ill.) After plating, agarose plates were incubated at 37 C overnight by standard methods. […] A plus (+) indicates growth on a plate, minus (−) indicates no growth. […] Putrescine is known to induce the expression of gamma-aminobutyrate transaminase in E. coli. This enzyme has been shown in some species including Rattus norvegicus to also have beta-alanine aminotransferase activity.

[2] = test system: AB354 (ΔpanD) + pKK223-mer; format: cell-based, E. coli; conditions: M9 minimal media plates with threonine, leucine, thiamine; 37 C overnight; 10 g/L beta-alanine, 1 mM IPTG, 0.2 g/L putrescine, 200 mg/L ampicillin where indicated
Experimental: as §1

AB354 (ΔpanD) + pKK223 = format: cell-based, E. coli; conditions: M9 minimal media plates with threonine, leucine, thiamine; 37 C overnight; 10 g/L beta-alanine, 1 mM IPTG, 0.2 g/L putrescine, 200 mg/L ampicillin where indicated
Experimental: as §1

AB354 (ΔpanD) = format: cell-based, E. coli; conditions: M9 minimal media plates with threonine, leucine, thiamine; 37 C overnight; 10 g/L beta-alanine, 1 mM IPTG, 0.2 g/L putrescine, 200 mg/L ampicillin where indicated
Experimental: as §1

K12 = format: cell-based, E. coli; conditions: M9 minimal media plates with threonine, leucine, thiamine; 37 C overnight; 10 g/L beta-alanine, 1 mM IPTG, 0.2 g/L putrescine, 200 mg/L ampicillin where indicated
Experimental: as §1

SMILES: O=C(O)c1cccc(O)c1O [2,3-dihydroxybenzoate]
- effect of addition on 3-HP toxicity (E. coli): alleviate toxicity to a degree

SMILES: O=C(O)CCO [3-HP, 3-hydroxypropionate]
- extracellular 3-HP level at which severe growth inhibition is observed (wild type E. coli K12; minimal media (pH 7.0)): ≥ 10 g/L
- 3-HP level at which toxicity is still observed (wild type E. coli K12; rich media): < 100 g/L
- product titer at which toxic effects are observed, relative to desired titers (wild type E. coli K12; rich media): approximately two times lower than desired titers
- 3-HP level at which metabolic activity is significantly inhibited, relative to the approximate 100 g/L titer (wild type E. coli K12; wild type E. coli, minimal media): 5-10 times lower

SMILES: CC1(C)S[C@@H]2[C@H](NC(=O)[C@H](N)c3ccccc3)C(=O)N2[C@H]1C(=O)O [Amp, ampicillin]
- growth on plate, strain AB354 (ΔpanD) + pKK223-kgd [1]: −
- growth on plate, strain AB354 (ΔpanD) + pKK223-mer [2]: −
- growth on plate, strain AB354 (ΔpanD) + pKK223 (AB354 (ΔpanD) + pKK223): −
- growth on plate, strain AB354 (ΔpanD) (AB354 (ΔpanD)): −
- growth on plate, strain K12 (K12): −

SMILES: Nc1ccc(C(=O)O)cc1 [para-aminobenzoate]
- effect of addition on 3-HP toxicity (E. coli): alleviate toxicity to a degree

SMILES: O=C(O)c1ccc(O)cc1 [para-hydroxy-benzoate]
- effect of addition on 3-HP toxicity (E. coli): alleviate toxicity to a degree

SMILES: N[C@@H](Cc1ccccc1)C(=O)O [phenylalanine]
- effect of addition on 3-HP toxicity (E. coli): alleviate toxicity to a degree

SMILES: N[C@@H](Cc1ccc(O)cc1)C(=O)O [tyrosine]
- effect of addition on 3-HP toxicity (E. coli): alleviate toxicity to a degree

SMILES: NCCC(=O)O [β-alanine, beta-alanine]
- growth on plate, strain AB354 (ΔpanD) + pKK223-kgd [1]: +
- growth on plate, strain AB354 (ΔpanD) + pKK223-mer [2]: +
- growth on plate, strain AB354 (ΔpanD) + pKK223 (AB354 (ΔpanD) + pKK223): +
- growth on plate, strain AB354 (ΔpanD) (AB354 (ΔpanD)): +
- growth on plate, strain K12 (K12): +
